Measurements from the NIST ThermoML archive (doi:10.1016/j.jct.2012.08.010).

Experiment: refractive index (Na D-line) (dimensionless); φn = volume fraction of the nth substance listed
Details: 101 kPa, Liquid, Standard Abbe refractometry

C=C[Si]1(C)O[Si](C)(C=C)O[Si](C)(C=C)O[Si](C)(C=C)O1 (stereo not given) [2,4,6,8-tetramethyl-2,4,6,8-tetravinylcycloterasiloxane] + Cc1cccc(C)c1
Details	refractive index
288.15 K, φ1 = 0.1301	1.4916
288.15 K, φ1 = 0.2524	1.48392
288.15 K, φ1 = 0.3347	1.47877
288.15 K, φ1 = 0.4159	1.47367
288.15 K, φ1 = 0.4865	1.46917
288.15 K, φ1 = 0.5517	1.46505
288.15 K, φ1 = 0.5985	1.46211
288.15 K, φ1 = 0.653	1.45885
288.15 K, φ1 = 0.6984	1.45591
288.15 K, φ1 = 0.7389	1.45344
288.15 K, φ1 = 0.776	1.45106
288.15 K, φ1 = 0.8087	1.44894
288.15 K, φ1 = 0.8405	1.44691
288.15 K, φ1 = 0.866	1.44524
288.15 K, φ1 = 0.8941	1.44346
288.15 K, φ1 = 0.9183	1.44189
288.15 K, φ1 = 0.941	1.44046
288.15 K, φ1 = 0.9804	1.43797
288.15 K, φ1 = 1	1.43674
298.15 K, φ1 = 0.1302	1.48641
298.15 K, φ1 = 0.2525	1.4788
298.15 K, φ1 = 0.3347	1.47372
298.15 K, φ1 = 0.416	1.46865
298.15 K, φ1 = 0.4866	1.46426
298.15 K, φ1 = 0.5518	1.46017
298.15 K, φ1 = 0.5986	1.45726
298.15 K, φ1 = 0.6531	1.454
298.15 K, φ1 = 0.6984	1.45105
298.15 K, φ1 = 0.7389	1.44845
298.15 K, φ1 = 0.7761	1.4461
298.15 K, φ1 = 0.8087	1.44408
298.15 K, φ1 = 0.8405	1.44212
298.15 K, φ1 = 0.866	1.44048
298.15 K, φ1 = 0.8941	1.4387
298.15 K, φ1 = 0.9183	1.43717
298.15 K, φ1 = 0.941	1.43574
298.15 K, φ1 = 0.9804	1.43324
298.15 K, φ1 = 1	1.43202
308.15 K, φ1 = 0.1302	1.48109
308.15 K, φ1 = 0.2525	1.47359
308.15 K, φ1 = 0.3348	1.46856
308.15 K, φ1 = 0.4161	1.46354
308.15 K, φ1 = 0.4867	1.45917
308.15 K, φ1 = 0.5519	1.45513
308.15 K, φ1 = 0.5987	1.45223
308.15 K, φ1 = 0.6532	1.44903
308.15 K, φ1 = 0.6985	1.4461
308.15 K, φ1 = 0.739	1.44355
308.15 K, φ1 = 0.7761	1.44125
308.15 K, φ1 = 0.8088	1.43919
308.15 K, φ1 = 0.8406	1.43727
308.15 K, φ1 = 0.8661	1.43566
308.15 K, φ1 = 0.8942	1.43391
308.15 K, φ1 = 0.9183	1.4324
308.15 K, φ1 = 0.941	1.43098
308.15 K, φ1 = 0.9804	1.4285
308.15 K, φ1 = 1	1.4273
318.15 K, φ1 = 0.1303	1.47582
318.15 K, φ1 = 0.2526	1.46841
318.15 K, φ1 = 0.3349	1.46342
318.15 K, φ1 = 0.4162	1.45843
318.15 K, φ1 = 0.4867	1.45413
318.15 K, φ1 = 0.5519	1.45015
318.15 K, φ1 = 0.5988	1.44727
318.15 K, φ1 = 0.6533	1.44383
318.15 K, φ1 = 0.6986	1.44117
318.15 K, φ1 = 0.7391	1.43865
318.15 K, φ1 = 0.7762	1.43639
318.15 K, φ1 = 0.8088	1.43434
318.15 K, φ1 = 0.8406	1.43244
318.15 K, φ1 = 0.8661	1.43085
318.15 K, φ1 = 0.8942	1.42911
318.15 K, φ1 = 0.9184	1.42763
318.15 K, φ1 = 0.9411	1.42622
318.15 K, φ1 = 0.9804	1.42377
318.15 K, φ1 = 1	1.42257
328.15 K, φ1 = 0.1303	1.47053
328.15 K, φ1 = 0.2526	1.46321
328.15 K, φ1 = 0.335	1.45825
328.15 K, φ1 = 0.4163	1.45333
328.15 K, φ1 = 0.4868	1.44908
328.15 K, φ1 = 0.552	1.44511
328.15 K, φ1 = 0.5988	1.44229
328.15 K, φ1 = 0.6533	1.43851
328.15 K, φ1 = 0.6986	1.43604
328.15 K, φ1 = 0.7391	1.43374
328.15 K, φ1 = 0.7762	1.43152
328.15 K, φ1 = 0.8089	1.42952
328.15 K, φ1 = 0.8407	1.42761
328.15 K, φ1 = 0.8661	1.42604
328.15 K, φ1 = 0.8942	1.42434
328.15 K, φ1 = 0.9184	1.42285
328.15 K, φ1 = 0.9411	1.42145
328.15 K, φ1 = 0.9804	1.41904
328.15 K, φ1 = 1	1.41785

C=C[Si]1(C)O[Si](C)(C=C)O[Si](C)(C=C)O[Si](C)(C=C)O1 (stereo not given) [2,4,6,8-tetramethyl-2,4,6,8-tetravinylcycloterasiloxane] + Cc1ccccc1C
Details	refractive index
288.15 K, φ1 = 0.1323	1.49868
288.15 K, φ1 = 0.2522	1.49036
288.15 K, φ1 = 0.3383	1.4844
288.15 K, φ1 = 0.4201	1.47866
288.15 K, φ1 = 0.4909	1.47364
288.15 K, φ1 = 0.5559	1.46898
288.15 K, φ1 = 0.6028	1.4657
288.15 K, φ1 = 0.6571	1.46179
288.15 K, φ1 = 0.7017	1.45858
288.15 K, φ1 = 0.7422	1.4556
288.15 K, φ1 = 0.7787	1.45298
288.15 K, φ1 = 0.8113	1.45065
288.15 K, φ1 = 0.842	1.44839
288.15 K, φ1 = 0.8679	1.44648
288.15 K, φ1 = 0.8958	1.44445
288.15 K, φ1 = 0.9198	1.44269
288.15 K, φ1 = 0.942	1.44102
288.15 K, φ1 = 0.9794	1.43827
288.15 K, φ1 = 1	1.43674
298.15 K, φ1 = 0.1324	1.49359
298.15 K, φ1 = 0.2524	1.48535
298.15 K, φ1 = 0.3385	1.47939
298.15 K, φ1 = 0.4203	1.4737
298.15 K, φ1 = 0.4911	1.46872
298.15 K, φ1 = 0.5561	1.46412
298.15 K, φ1 = 0.603	1.46081
298.15 K, φ1 = 0.6573	1.45693
298.15 K, φ1 = 0.7019	1.45375
298.15 K, φ1 = 0.7423	1.45081
298.15 K, φ1 = 0.7788	1.44819
298.15 K, φ1 = 0.8114	1.44585
298.15 K, φ1 = 0.8421	1.4436
298.15 K, φ1 = 0.868	1.44172
298.15 K, φ1 = 0.8958	1.43977
298.15 K, φ1 = 0.9199	1.43795
298.15 K, φ1 = 0.9421	1.4363
298.15 K, φ1 = 0.9794	1.43354
298.15 K, φ1 = 1	1.43202
308.15 K, φ1 = 0.1325	1.48836
308.15 K, φ1 = 0.2526	1.48017
308.15 K, φ1 = 0.3387	1.47425
308.15 K, φ1 = 0.4205	1.46859
308.15 K, φ1 = 0.4913	1.46366
308.15 K, φ1 = 0.5563	1.45909
308.15 K, φ1 = 0.6032	1.45581
308.15 K, φ1 = 0.6575	1.45196
308.15 K, φ1 = 0.7021	1.44881
308.15 K, φ1 = 0.7425	1.4459
308.15 K, φ1 = 0.779	1.44332
308.15 K, φ1 = 0.8116	1.441
308.15 K, φ1 = 0.8422	1.43878
308.15 K, φ1 = 0.8681	1.43691
308.15 K, φ1 = 0.8959	1.43489
308.15 K, φ1 = 0.9199	1.43317
308.15 K, φ1 = 0.9421	1.43154
308.15 K, φ1 = 0.9794	1.42881
308.15 K, φ1 = 1	1.4273
318.15 K, φ1 = 0.1326	1.48315
318.15 K, φ1 = 0.2527	1.47503
318.15 K, φ1 = 0.3389	1.46915
318.15 K, φ1 = 0.4207	1.46354
318.15 K, φ1 = 0.4915	1.45862
318.15 K, φ1 = 0.5565	1.45412
318.15 K, φ1 = 0.6034	1.45086
318.15 K, φ1 = 0.6577	1.44704
318.15 K, φ1 = 0.7022	1.44393
318.15 K, φ1 = 0.7426	1.44105
318.15 K, φ1 = 0.7791	1.43846
318.15 K, φ1 = 0.8117	1.4362
318.15 K, φ1 = 0.8423	1.43396
318.15 K, φ1 = 0.8682	1.43215
318.15 K, φ1 = 0.896	1.43012
318.15 K, φ1 = 0.92	1.4284
318.15 K, φ1 = 0.9421	1.42678
318.15 K, φ1 = 0.9794	1.42407
318.15 K, φ1 = 1	1.42257
328.15 K, φ1 = 0.1326	1.4779
328.15 K, φ1 = 0.2528	1.46957
328.15 K, φ1 = 0.339	1.46397
328.15 K, φ1 = 0.4208	1.45836
328.15 K, φ1 = 0.4916	1.45349
328.15 K, φ1 = 0.5567	1.44897
328.15 K, φ1 = 0.6035	1.44567
328.15 K, φ1 = 0.6578	1.44199
328.15 K, φ1 = 0.7023	1.43887
328.15 K, φ1 = 0.7427	1.43597
328.15 K, φ1 = 0.7792	1.43343
328.15 K, φ1 = 0.8118	1.43123
328.15 K, φ1 = 0.8423	1.42902
328.15 K, φ1 = 0.8683	1.42718
328.15 K, φ1 = 0.896	1.42526
328.15 K, φ1 = 0.92	1.42355
328.15 K, φ1 = 0.9422	1.42195
328.15 K, φ1 = 0.9794	1.41933
328.15 K, φ1 = 1	1.41785
